Experimental data reported in patent publication US9073895B2 (Boehringer Ingelheim International GmbH, priority 2010, dated 2015).

Experiments:
[1] = system: synthesis of LTB4 in human whole blood; assay: Human whole blood LTB4 production inhibition assay; format: cell-based; details: heparinized human whole blood, calcimycin 20 μM, plasma LTB4; read-out: HuWB IC50
Method in brief: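 Heparinized human whole blood preincubated with compound 15 min at 37 °C, then stimulated with calcimycin (20 μM final) for 30 min at 37 °C. Plasma LTB4 measured after low-speed centrifugation by antibody-based homogeneous time-resolved fluorescence.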

[2] = target: T1, recombinant human FLAP protein (Homo sapiens, UniProt P20292); assay: FLAP binding assay (SPA, displacement of [125I]L-691,831); details: membranes of sf9 cells expressing human FLAP, [125I]L-691,831 probe; read-out: hFLAP binding IC50
T1 construct: made in house; host or cells: Sf9 insect cells (membrane fraction, 100,000 x g pellet)
T1 sequence (P20292 1-161): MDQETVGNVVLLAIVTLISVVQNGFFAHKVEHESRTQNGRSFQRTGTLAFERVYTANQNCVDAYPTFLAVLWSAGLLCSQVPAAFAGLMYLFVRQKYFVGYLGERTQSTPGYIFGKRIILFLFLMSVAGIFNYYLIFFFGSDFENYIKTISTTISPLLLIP
Method in brief: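 Membranes from sf9 cells expressing human FLAP (5 μg/well) were bound to WGA SPA beads (200 μg/well). Nonspecific binding was defined with 10 μM unlabelled L-691,831.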

Compound | IC50 [1] [nM] | IC50 [2] [nM]
Nc1ncc(-c2ccc(C3(C(=O)Nc4ccc(-c5cn[nH]c5)cn4)CCC3)cc2)cn1 [Example 104, 1-[4-(2-aminopyrimidin-5-yl)phenyl]-N-[5-(1H-pyrazol-4-yl)pyridin-2-yl]cyclobutanecarboxamide] | 155 | 1.95
Cn1nccc1-c1ccc(NC(=O)C2(c3ccc(-c4cnc(N)nc4)cc3)CCC2)nc1 [Example 106, 1-[4-(2-aminopyrimidin-5-yl)phenyl]-N-[5-(1-methyl-1H-pyrazol-5-yl)pyridin-2-yl]cyclobutanecarboxamide] | 195 | 3
CS(=O)(=O)c1ccc(NC(=O)C2(c3ccc(-c4cnc(N)nc4)cn3)CCC2)cc1 [Example 107, 1-[5-(2-aminopyrimidin-5-yl)pyridin-2-yl]-N-[4-(methylsulfonyl)phenyl]cyclobutane-carboxamide] | 1100 | 87
N=C(N)NC(=O)c1ccc(NC(=O)C2(c3ccc(-c4cnc(N)nc4)cc3)CCC2)nc1 [Example 108, 6-[({1-[4-(2-aminopyrimidin-5-yl)phenyl]cyclobutyl}carbonyl)amino]-N-carbamimidoylpyridine-3-carboxamide] | 1900 | 2
Cn1cc(-c2ccc(NC(=O)C3(c4ccc(-c5cnc(N)nc5)cn4)CCC3)nc2)cn1 [Example 109, 1-[5-(2-aminopyrimidin-5-yl)pyridin-2-yl]-N-[5-(1-methyl-1H-pyrazol-4-yl)pyridin-2-yl]cyclobutanecarboxamide] | 2100 | 9.4
COc1cncc(-c2ccc(C(C)(C(=O)Nc3ccc(C)nn3)C(C)C)cc2)c1 (centres unmarked) [Example 114] | > 20000 | 290
CCCCc1ccc2cc(NC(=O)C(C)(c3ccc(-c4cncc(OC)c4)cc3)C(C)C)ccc2n1 (centres unmarked) [Example 115, N-(2-butylquinolin-6-yl)-2-[4-(5-methoxypyridin-3-yl)phenyl]-2,3-dimethylbutanamide] | 17100 | 190
Cc1nc(-c2ccc(NC(=O)C(C)(c3ccc(-c4cnc(N)nc4)cc3)C(C)C)nc2)cs1 (centres unmarked) [Example 119, 2-[4-(2-aminopyrimidin-5-yl)phenyl]-2,3-dimethyl-N-[5-(2-methyl-1,3-thiazol-4-yl)pyridin-2-yl]butanamide] | 986 | 3.95
Cc1nc(-c2ccc(NC(=O)C3(c4ccc(-c5cnc(N)nc5)cc4)CCCCC3)cc2)cs1 [Example 120, 1-[4-(2-aminopyrimidin-5-yl)phenyl]-N-[4-(2-methyl-1,3-thiazol-4-yl)phenyl]cyclohexane-carboxamide] | 1270 | 11.5
Nc1ncc(-c2ccc(C3(C(=O)Nc4cc(C(F)(F)F)no4)CCOCC3)cc2)cn1 [Example 125, 4-[4-(2-aminopyrimidin-5-yl)phenyl]-N-[3-(trifluoromethyl)-1,2-oxazol-5-yl]tetrahydro-2H-pyran-4-carboxamide] | 5560 | 173
CC(C)C(C)(C(=O)Nc1ccccn1)c1ccc(-c2cnc(N)nc2)cc1 (centres unmarked) [Example 127, 2-[4-(2-aminopyrimidin-5-yl)phenyl]-2,3-dimethyl-N-(pyridin-2-yl)butanamide] | 3220 | 9
Cc1nc(-c2ccc(NC(=O)C(c3ccc(-c4cnc(N)nc4)cc3)C(C)C)nc2)cs1 (centres unmarked) [Example 133, 2-[4-(2-aminopyrimidin-5-yl)phenyl]-3-methyl-N-[5-(2-methyl-1,3-thiazol-4-yl)pyridin-2-yl]butanamide] | 4400 | 9.4
COc1ccc(-c2ccc(NC(=O)C3(c4ccc(-c5cnc(N)nc5)cc4)CCOCC3)nc2)cn1 [Example 134, 4-[4-(2-aminopyrimidin-5-yl)phenyl]-N-(6'-methoxy-3,3'-bipyridin-6-yl)tetrahydro-2H-pyran-4-carboxamide] | 651 | 17.5

Other lines, results leading:

IC50 [1] [nM] | IC50 [2] [nM] | Compound
1100 | 120 | Cn1cc(NC(=O)C2(c3ccc(-c4cnc(N)nc4)cc3)CCC2)cn1 [Example 110, 1-[4-(2-aminopyrimidin-5-yl)phenyl]-N-(1-methyl-1H-pyrazol-4-yl)cyclobutanecarboxamide]
2380 | 180 | COc1cncc(-c2ccc(C(C)(C(=O)Nc3ccc(OCc4ccccn4)cc3)C(C)C)cc2)c1 (centres unmarked) [Example 111]
2060 | 230 | COc1cncc(-c2ccc(C(C)(C(=O)Nc3ccc(-c4csc(C)n4)cc3)C(C)C)cc2)c1 (centres unmarked) [Example 112, 2-[4-(5-methoxypyridin-3-yl)phenyl]-2,3-dimethyl-N-[4-(2-methyl-1,3-thiazol-4-yl)phenyl]butanamide]
10400 | 390 | COc1cncc(-c2ccc(C(C)(C(=O)Nc3cccc(-c4csc(C)n4)c3)C(C)C)cc2)c1 (centres unmarked) [Example 113, 2-[4-(5-methoxypyridin-3-yl)phenyl]-2,3-dimethyl-N-[3-(2-methyl-1,3-thiazol-4-yl)phenyl]butanamide]
10800 | 430 | COc1ncc(-c2ccc(C(C)(C(=O)Nc3ccc(-c4csc(C)n4)cc3)C(C)C)cc2)cn1 (centres unmarked) [Example 116, 2-[4-(2-methoxypyrimidin-5-yl)phenyl]-2,3-dimethyl-N-[4-(2-methyl-1,3-thiazol-4-yl)phenyl]butanamide]
1530 | 9.3 | Cc1nc(-c2ccc(NC(=O)C(C)(c3ccc(-c4cnc(N)nc4)cc3)C(C)C)cc2)cs1 (centres unmarked) [Example 117, 2-[4-(2-aminopyrimidin-5-yl)phenyl]-2,3-dimethyl-N-[4-(2-methyl-1,3-thiazol-4-yl)phenyl]butanamide]
10700 | 260 | Cc1nc(-c2ccc(NC(=O)C(C)(c3ccc(-c4cnn(C)c4)cc3)C(C)C)cc2)cs1 (centres unmarked) [Example 118, 2,3-dimethyl-2-[4-(1-methyl-1H-pyrazol-4-yl)phenyl]-N-[4-(2-methyl-1,3-thiazol-4-yl)phenyl]butanamide]
1880 | 19 | Cc1nc(-c2ccc(NC(=O)C3(c4ccc(-c5cnc(N)nc5)cc4)CCOCC3)cc2)cs1 [Example 121, 4-[4-(2-aminopyrimidin-5-yl)phenyl]-N-[4-(2-methyl-1,3-thiazol-4-yl)phenyl]tetrahydro-2H-pyran-4-carboxamide]
1040 | 9.53 | Cc1nc(-c2ccc(NC(=O)C3(c4ccc(-c5cnc(N)nc5)cc4)CCOCC3)nc2)cs1 [Example 122, 4-[4-(2-aminopyrimidin-5-yl)phenyl]-N-[5-(2-methyl-1,3-thiazol-4-yl)pyridin-2-yl]tetrahydro-2H-pyran-4-carboxamide]
919 | 4 | Cc1nc(-c2ccc(NC(=O)C3(c4ccc(-c5cnc(N)nc5)cc4)CCCCC3)nc2)cs1 [Example 123, 1-[4-(2-aminopyrimidin-5-yl)phenyl]-N-[5-(2-methyl-1,3-thiazol-4-yl)pyridin-2-yl]cyclohexanecarboxamide]
2170 | 77.5 | CC(C)(C)c1nsc(NC(=O)C2(c3ccc(-c4cnc(N)nc4)cc3)CCOCC2)n1 [Example 124, 4-[4-(2-aminopyrimidin-5-yl)phenyl]-N-(3-tert-butyl-1,2,4-thiadiazol-5-yl)tetrahydro-2H-pyran-4-carboxamide]
12000 | 180 | CC(C)(C)c1noc(NC(=O)C2(c3ccc(-c4cnc(N)nc4)cc3)CCCCC2)n1 [Example 126, 1-[4-(2-aminopyrimidin-5-yl)phenyl]-N-(3-tert-butyl-1,2,4-oxadiazol-5-yl)cyclohexanecarboxamide]
815 | 140 | Cc1nc(-c2ccc(NC(=O)C3(c4ccc(-c5cnc(N)nc5)cn4)CCOCC3)nc2)cs1 [Example 128, 4-[5-(2-aminopyrimidin-5-yl)pyridin-2-yl]-N-[5-(2-methyl-1,3-thiazol-4-yl)pyridin-2-yl]tetrahydro-2H-pyran-4-carboxamide]
8620 | 10.4 | Nc1ncc(-c2ccc(C3(C(=O)Nc4ccccn4)CCC3)cc2)cn1 [Example 129, 1-[4-(2-aminopyrimidin-5-yl)phenyl]-N-(pyridin-2-yl)cyclobutanecarboxamide]
224 | 1.52 | COc1cncc(-c2ccc(NC(=O)C3(c4ccc(-c5cnc(N)nc5)cc4)CCC3)nc2)c1 [Example 130, 1-[4-(2-aminopyrimidin-5-yl)phenyl]-N-(5'-methoxy-3,3'-bipyridin-6-yl)cyclobutanecarboxamide]
414 | 2.2 | Cc1nc(-c2ccc(NC(=O)C3(c4ccc(-c5cnc(N)nc5)cc4)CCC3)nc2)cs1 [Example 131, 1-[4-(2-aminopyrimidin-5-yl)phenyl]-N-[5-(2-methyl-1,3-thiazol-4-yl)pyridin-2-yl]cyclobutanecarboxamide]
1510 | 220 | COc1cncc(-c2ccc(NC(=O)C3(c4ccc(-c5cnc(N)nc5)nc4)CCOCC3)nc2)c1 [Example 132, 4-[6-(2-aminopyrimidin-5-yl)pyridin-3-yl]-N-(5′-methoxy-3,3′-bipyridin-6-yl)tetrahydro-2H-pyran-4-carboxamide]
738 | 11.1 | COc1cncc(-c2ccc(NC(=O)C3(c4ccc(-c5cnc(N)nc5)cc4)CCOCC3)nc2)c1 [Example 135, 4-[4-(2-aminopyrimidin-5-yl)phenyl]-N-(5'-methoxy-3,3'-bipyridin-6-yl)tetrahydro-2H-pyran-4-carboxamide]
